From patent US7989179B2, “LXR ligand testing method” (Daiichi Sankyo Company, Limited, priority 2005, dated 2011)

Columns and labels:
THP-1 cells = assay: Cholesterol efflux assay; format: cell-based; conditions: compound final concentration 0.1 μM, 24 hours
Description: 3×10^5 THP-1 cells (ATCC No.: TIB-202) were disseminated in a 96-well white plate (Costar) followed by the addition of 200 nM Phorbol 12-Myristate 13-Acetate (Sigma) and culturing for 24 hours at 37° C. in a CO2 incubator. […] Following completion of culturing, 100 μl of PBS containing 0.2% bovine serum albumin (hereinafter referred to as “BSA”, (Sigma Chemical)) were added to each well to wash the cells. Next, 100 μl of RPMI 1640 containing Apolipoprotein A1 (hereinafter referred to as “ApoA1”, (Biogenesis)) at a final concentration of 10 μg/ml, or RPMI 1640 not containing ApoA1, were added to each well. […] Following completion of culturing, the plate was centrifuged for 5 minutes at 1,000 rpm and 4° C. 75 μl of medium in the form of the centrifuged supernatant were transferred to a 96-well Luma plate (Packard) and allowed to dry. […] 20 (Packard) were added to each well of the plate containing the washed cells and allowed to stand overnight, followed by measuring the radioactivity of the medium and cells with a scintillation counter (Top Count, Packard). Percent (%) efflux was calculated from the measured values using the calculation formula shown below. % efflux=(Specific radioactivity of medium(CPM)/75×100)/(Specific radioactivity of medium(CPM)+specific radioactivity of cells(CPM))×100 […]

[1] = molecular target: T1, heterodimer comprising LXRα and RXRα (Homo sapiens, UniProt Q13133, A196R); assay: FRET assay of coactivator peptide binding to His-LXRα/FLAG-RXRα; format: biochemical
T1 construct: amino acid nos; made in house; host or cells: Escherichia coli BL21(DE3)
T1 sequence (Q13133 164-447 A196R): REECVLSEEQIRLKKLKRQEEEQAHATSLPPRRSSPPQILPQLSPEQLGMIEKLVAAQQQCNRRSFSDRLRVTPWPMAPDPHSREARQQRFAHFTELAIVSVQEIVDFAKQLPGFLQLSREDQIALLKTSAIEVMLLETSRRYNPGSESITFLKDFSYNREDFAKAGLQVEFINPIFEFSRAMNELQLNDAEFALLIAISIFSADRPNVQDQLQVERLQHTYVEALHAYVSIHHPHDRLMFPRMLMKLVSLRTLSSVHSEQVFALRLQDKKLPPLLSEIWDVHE
T1 sequence (P19793 201-462 partner limits assumed): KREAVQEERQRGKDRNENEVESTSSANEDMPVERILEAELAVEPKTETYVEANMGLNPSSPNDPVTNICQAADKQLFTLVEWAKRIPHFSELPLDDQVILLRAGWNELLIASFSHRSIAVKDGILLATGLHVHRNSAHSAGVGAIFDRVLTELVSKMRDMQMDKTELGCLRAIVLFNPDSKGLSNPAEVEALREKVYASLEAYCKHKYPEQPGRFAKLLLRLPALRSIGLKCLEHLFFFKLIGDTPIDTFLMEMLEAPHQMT
Description: 8 μl of LXRα reaction solution (0.05 μl of 4 μM His-LXRα and FLAG-RXRα mixed solution, 1.00 μl of 10×PBS (Sigma Chemical), 2.50 μl of 2 M KF (Wako Pure Chemical Industries), 0.10 μl of 10% NP40 (Sigma Chemical), 0.15 μl of anti-His tag antibody (CIS Bio International) and 4.20 μl of H2O) containing the His-LXRα and FLAG-RXRα prepared according to Example 1 were placed in a 384-well assay plate (Greiner Bio-One).
Next, 2 μl of a solution of Compound A (N-(2,2,2-trifluoroethyl)-N-{4-[2,2,2-trifluoro-1-hydroxy-1-(trifluoromethyl)ethyl]phenyl}benzene sulfonamide (Compound 12 described on page 55 of International Publication WO2000/054759) or Compound B (3-chloro-4-(3-(2-propyl-3-trifluoromethyl-6-benz-[4,5]-isooxazoloxy)propylthio)phenylacetic acid (a compound described in Example 20 on page 70 of International Publication WO1997/028137), dissolved to a concentration of 10 μM in dimethyl sulfoxide (hereinafter referred to as “DMSO”), were added to each well of a 384-well assay plate followed by incubating for 1 hour at room temperature.
Next, 10 μl of peptide reaction solution (1.00 μl of 5 μM peptide, 1.00 μl of 10×PBS, 2.50 μl of 2 M KF, 0.10 μl of 10% NP40, 0.20 μl of streptavidin (CIS Bio International) and 5.20 μl of H2O) were added to each well of the 384-well assay plate and incubated for 17 hours at 4° C. The peptide added here was comprising of any of the amino acid sequences of (a) to (g) below, and the amino acid of the N-terminal was biotinylated.
Following completion of incubation, the assay plate was subjected to excitation light at 337 nm using a fluorescent plate reader (Envision, Perkin-Elmer), and fluorescent absorbance at 665 nm and 620 nm was measured to determine the binding capacity between the protein and the peptide.
The value obtained by multiplying 1000 by the value resulting from dividing the measured value at 665 nm when applying excitation light at 337 nm by the measured value at 620 nm was determined. This value was then divided by the value determined by the same method when only DMSO was added without adding LXR ligand (Compound A or Compound B), and this value was then multiplied by 100 and indicated as the percentage relative to the control (% of control) as shown in Table 6.
The value for % of control determined here is the value, represented by a percentage, that indicates the ratio of the increase in the amount of coactivator bound to LXRα that results from adding LXR ligand, and the larger this value, the larger the amount of coactivator that binds to LXRα.
(1) According to the same method as Example 2) (using the following peptides (h) to (m), instead of the peptides (a) to (g) in Example 2), the amount of coactivator bound to the heterodimer LXRα and RXRα were determined.

[2] = molecular target: T2, heterodimer comprising LXRβ and RXRα (Homo sapiens, UniProt P55055, DUP175-175); assay: FRET assay of coactivator peptide binding to His-LXRβ/FLAG-RXRα; format: biochemical
T2 construct: made in house; host or cells: Escherichia coli BL21(DE3)
T2 sequence (P55055 with tags, fused parts or gaps DUP175-175): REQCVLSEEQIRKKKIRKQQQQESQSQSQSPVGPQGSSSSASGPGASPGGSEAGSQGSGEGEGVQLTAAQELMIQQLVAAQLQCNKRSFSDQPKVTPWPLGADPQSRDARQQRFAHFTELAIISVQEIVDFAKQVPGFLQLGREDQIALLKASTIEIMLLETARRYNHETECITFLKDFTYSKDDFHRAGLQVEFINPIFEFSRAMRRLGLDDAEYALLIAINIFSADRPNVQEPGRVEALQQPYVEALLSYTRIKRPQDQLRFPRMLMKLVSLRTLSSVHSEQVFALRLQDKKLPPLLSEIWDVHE
T2 sequence (P19793 201-462 partner limits assumed): T1 sequence (P19793 201-462 partner limits assumed)
Description: 8 μl of LXRβ reaction solution (0.025 μl of 8 μM His-LXRβ and FLAG-RXRα mixed solution, 1.00 μl of 10×PBS, 2.50 μl of 2 M KF, 0.10 μl of 10% NP40, 0.15 μl of anti-His tag antibody and 4.23 μl of H2O) containing the His-LXRβ and FLAG-RXRα prepared according to Example 1 were placed in a 384-well assay plate (Greiner Bio-One) and measured according to the same method as Example 2 to determine the % of control (Table 6). There was no significant difference observed in the resulting values between Compound A and Compound B.
(2) […]: According to the same method in Example 3) (using the above peptides (h) to (m), instead of peptides (a) to (g) in Example 3), the amount of the coactivator bound to the heterodimer comprising LXRβ and RXRα were determined. There was no significant difference observed in the resulting values between Compound A and Compound B (Table 7).

[3] = Cynomolgus monkey consecutive daily administration study; format: in vivo, cynomolgus monkeys; conditions: for Relative value of LDL Cholesterol in Plasma (% of control group) / Relative value of TG in Plasma (% of control group): male cynomolgus monkeys, force fed, PG/Tween
Description: Five to seven year old, male cynomolgus monkeys in groups of 5 animals each were force fed only an administration base (Propylene glycol (Wako Pure Chemical Industries)/Tween 80 (Kao) (volume ratio: 4/1, hereinafter referred to as “PG/Tween”)) (hereinafter referred to as “the control group”), or Compound A or Compound B dissolved in PG/Tween in an amount of 3 mg/kg or 10 mg/kg once a day for 7 days between the hours of 8:00 and 10:00 AM. After fasting for 16 hours starting at 5:00 PM on the 7th day of administration, 1 mL of blood was collected from the cephalic vein with a heparinized syringe followed by centrifuging for 15 minutes at 4° C. and 5000 rpm to obtain plasma.
The levels of LDL cholesterol and triglycerides in the plasma were measured with an auto analyzer (Hitachi Model 7170) followed by calculation of the % of control group (Tables 8 and 9).

[4] = peptide ASC2 NR-1, 2 μl of 10 μM compound solution in DMSO
[5] = peptide ASC2 NR-2, 2 μl of 10 μM compound solution in DMSO
[6] = peptide PGC-1α, 2 μl of 10 μM compound solution in DMSO
[7] = peptide SRC1-2, 2 μl of 10 μM compound solution in DMSO
[8] = peptide SRC1-3, 2 μl of 10 μM compound solution in DMSO
[9] = peptide SRC1-4, 2 μl of 10 μM compound solution in DMSO
[10] = peptide TIF2, 2 μl of 10 μM compound solution in DMSO

Which “relative cholesterol efflux activity (% efflux, Compound A at 1 μM = 100)” value (THP-1 cells) does the source give for `O=S(=O)(c1ccccc1)N(CC(F)(F)F)c1ccc(C(O)(C(F)(F)F)C(F)(F)F)cc1` [Compound A, N-(2,2,2-trifluoroethyl)-N-{4-[2,2,2-trifluoro-1-hydroxy-1-(trifluoromethyl)ethyl]phenyl}benzenesulfonamide] here?
Its value is 86%.

And the “effect on amount of coactivator bound to LXRα (result in words)” value ([1]; Example 2, peptides (a) to (g))?
The value was “increases the amount of coactivator bound to LXRα”.

And the “LXRα (% of control)” value ([1]; peptide ACTR NRB3, same method as Example 2)?
The value was 167 % of control.

And the “LXRα (% of control)” value [1, 4]?
Its value is 155.8 % of control.

What about the “LXRα (% of control)” value [1, 5] of the same compound?
The value was 254.0 % of control.

And the “LXRα (% of control)” value ([1]; peptide DAX1, same method as Example 2)?
Its value is 158 % of control.

What about the “LXRα (% of control)” value ([1]; peptide PERC NRB2, same method as Example 2) of the same compound?
Its value is 127 % of control.

What about the “LXRα (% of control)” value [1, 6] of the same compound?
The value was 361.7 % of control.

What about the “LXRα (% of control)” value ([1]; peptide PNRC, same method as Example 2) of the same compound?
Its value is 140 % of control.

And the “LXRα (% of control)” value [1, 7]?
The value was 267.0 % of control.

What about the “LXRα (% of control)” value [1, 8] of the same compound?
The value was 181.3 % of control.

What about the “LXRα (% of control)” value [1, 9] of the same compound?
The value was 207.3 % of control.

And the “LXRα (% of control)” value [1, 10]?
Its value is 266.7 % of control.

What about the “LXRα (% of control)” value ([1]; peptide TIF2 NRB2, same method as Example 2) of the same compound?
Its value is 268 % of control.

And the “LXRα (% of control)” value ([1]; peptide TRAP220, same method as Example 2)?
Its value is 131 % of control.

What about the “LXRβ (% of control)” value ([2]; peptide ACTR NRB3, same method as Example 3) of the same compound?
Its value is 129 % of control.

What about the “LXRβ (% of control)” value [2, 4] of the same compound?
The value was 114.5 % of control.

What about the “LXRβ (% of control)” value [2, 5] of the same compound?
The value was 120.4 % of control.

And the “LXRβ (% of control)” value ([2]; peptide DAX1, same method as Example 3)?
Its value is 116 % of control.

And the “LXRβ (% of control)” value ([2]; peptide PERC NRB2, same method as Example 3)?
Its value is 104 % of control.

And the “LXRβ (% of control)” value [2, 6]?
Its value is 191.0 % of control.

What about the “LXRβ (% of control)” value ([2]; peptide PNRC, same method as Example 3) of the same compound?
Its value is 109 % of control.

What about the “LXRβ (% of control)” value [2, 7] of the same compound?
Its value is 120.4 % of control.

And the “LXRβ (% of control)” value [2, 8]?
The value was 110.6 % of control.

And the “LXRβ (% of control)” value [2, 9]?
Its value is 154.6 % of control.

What about the “LXRβ (% of control)” value [2, 10] of the same compound?
Its value is 107.9 % of control.

And the “LXRβ (% of control)” value ([2]; peptide TIF2 NRB2, same method as Example 3)?
Its value is 125 % of control.

And the “LXRβ (% of control)” value ([2]; peptide TRAP220, same method as Example 3)?
Its value is 111 % of control.

And the “effect on plasma LDL cholesterol and triglyceride concentration (result in words)” value ([3]; cynomolgus monkeys, 7 days administration)?
Its value is “increase LDL cholesterol concentration and triglyceride concentration in the plasma”.

And the “Relative value of LDL Cholesterol in Plasma (% of control group)” value ([3]; 3 mg/kg once a day for 7 days)?
The value was 137%.

What about the “Relative value of TG in Plasma (% of control group)” value ([3]; 3 mg/kg once a day for 7 days) of the same compound?
The value was 429%.

And the “Relative value of LDL Cholesterol in Plasma (% of control group)” value ([3]; 10 mg/kg once a day for 7 days)?
Its value is 207%.

What about the “Relative value of TG in Plasma (% of control group)” value ([3]; 10 mg/kg once a day for 7 days) of the same compound?
Its value is 661%.
